A short description of data set [1]: mouse liver metabolic stability assay. The data set is classed as in vitro ADME.
For the next data set, the system named is MDA-MB-231 cell lines. Briefly: transwell Matrigel invasion chamber assay. The data set is classed as cell-based, human. Particulars: MDA-MB-231, 10 and 20 vM, 20 hours, compared to control group. The protocol: (§1) In order to evaluate the cytotoxicity of the compound 1-1 according to the present invention, MTT assay was performed on a human breast cancer cell line (MDA-MB-231). Cells used in the experiment were all purchased from the American Type Culture Collection (ATCC). First, 1×10^5 MDA-MB-231 cells were divided into 200 vL of 5×10^3 cells in a 96-well plate using a DMEM medium added with 10% fetal bovine serum (FBS), […] and 50 U/ml penicillin while maintained at 37° C. under 5% CO2 air, and then incubated in a CO2 incubator for 24 hours. The purchased compound 1-1 of the present invention was treated at a concentration of 50 vM and incubated for 24 hours under the same culture conditions. After the incubation was completed, the culture medium was removed and 50 vL of 10 mg/mL MTT solution [3-(4,5-dimethylthiazol-2-yl)-2,5-diphenyltetrazolium bromide] (Sigma, St. Louis, MO, USA) was added per well and reacted at 37° C. for 4 hours. Subsequently, a supernatant was removed carefully so as to […] formazan crystals at the bottom, and 50 μL of dimethyl sulfoxide (DMSO) was added per well, and then shaken for 10 minutes, and an optical density (OD) at 590 nm was measured. […] The number of moved cells was quantified using an optical microscope (×100). […]

Data set [2] has as its system human breast cancer cell line (MDA-MB-231). Briefly: MTT cytotoxicity assay. The data set is classed as cell-based. The protocol: as §1
Data set [3] has as its system mouse breast cancer cell line 4T1. The experiment in a line: orthotopic xenograft spontaneous metastasis mouse model (metastatic breast cancer). The data set is classed as in vivo. The text has this:
In order to test a metastasis-inhibiting effect of the compound 1-1, which was a CSE1L inhibiting compound, in a mouse model, the metastasis-inhibiting effect was confirmed using an orthotopic xenograft spontaneous metastasis model. First, a method of examining metastasis of cancer formed by subcutaneous transplantation of mouse breast cancer cell line 4T1 (murine breast cancer cell) to other tissues was used. Female 6-week-old nude mice (BALB/c) were used. To make solid cancer, the mouse breast cancer cell line 4T1 (1×10^5 murine breast cancer cells) was transplanted into the 4th Mammary Fat Pad of the mouse, and from 5 days later, the compound 1-1 was treated at 10 mg/kg and 50 mg/kg every day for 3 weeks, respectively. […] In addition, after 25 days, the mice were autopsied to confirm the number of cancer cells metastasizing to the lung. […] Through the evaluation of anti-metastasis efficacy using the metastasis breast cancer model, the metastasis-inhibiting efficacy of the compound 1-1 was confirmed through selective regulation of the CSE1L function by binding to the target protein CSE1L. Accordingly, a novel derivative was synthesized in order to secure a substance showing better activity than these substances.

The next data set concerns MDA-MB-231 cells. Briefly: Wound healing assay (cancer cell movement). The data set is classed as cell-based, human. The protocol:
as §1

For a further data set, the target named is T1, CSE1L (Homo sapiens, UniProt P55060).
T1 construct: endogenous in cells
T1 sequence (P55060 1-971): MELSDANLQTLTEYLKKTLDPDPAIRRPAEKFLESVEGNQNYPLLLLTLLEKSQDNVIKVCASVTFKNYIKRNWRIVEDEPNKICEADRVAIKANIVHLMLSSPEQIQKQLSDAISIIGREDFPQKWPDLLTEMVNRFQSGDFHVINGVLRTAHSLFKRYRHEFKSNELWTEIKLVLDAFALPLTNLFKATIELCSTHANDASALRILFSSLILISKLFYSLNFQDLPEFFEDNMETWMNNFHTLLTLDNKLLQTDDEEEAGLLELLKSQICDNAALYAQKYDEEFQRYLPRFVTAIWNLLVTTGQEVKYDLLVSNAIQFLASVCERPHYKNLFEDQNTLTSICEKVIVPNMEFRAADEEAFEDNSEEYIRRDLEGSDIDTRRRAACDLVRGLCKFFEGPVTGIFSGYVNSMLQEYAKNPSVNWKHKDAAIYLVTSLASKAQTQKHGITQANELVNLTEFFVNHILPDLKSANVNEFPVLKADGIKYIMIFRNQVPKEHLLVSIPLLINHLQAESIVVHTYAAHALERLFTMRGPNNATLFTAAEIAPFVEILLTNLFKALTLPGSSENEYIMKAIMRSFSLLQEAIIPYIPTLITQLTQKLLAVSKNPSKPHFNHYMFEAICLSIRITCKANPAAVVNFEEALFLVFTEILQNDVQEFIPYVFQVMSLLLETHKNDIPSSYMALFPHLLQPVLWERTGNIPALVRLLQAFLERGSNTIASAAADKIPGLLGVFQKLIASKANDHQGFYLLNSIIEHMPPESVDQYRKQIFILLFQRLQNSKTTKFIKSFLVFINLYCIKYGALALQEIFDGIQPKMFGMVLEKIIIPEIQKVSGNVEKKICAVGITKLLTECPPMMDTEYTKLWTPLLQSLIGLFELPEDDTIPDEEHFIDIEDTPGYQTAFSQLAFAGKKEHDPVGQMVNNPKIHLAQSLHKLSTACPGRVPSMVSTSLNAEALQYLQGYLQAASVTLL
Briefly: thermal shift assay (TSA) in cells, remaining CSE1L by Western blot. The data set is classed as binding. Particulars: cells treated 10 vM, 24 hours; 42-60° C. for 5 minutes; vs DMSO. The source says:
A CSE1L protein was known as nuclear exportin 2, a type of nuclear exportin that played a role in moving importin-α from the intra-nucleus to the cytoplasm as a cargo protein of nuclear transport (Solsbacher, J.; Maurer, P.; Bischoff, F. R.; Schlenstedt, G. Mol. Cell. Biol. 1998, 18, 6805.). In general, importin-α and Ran-GTP, which were cargo proteins, bound to exportin CSE1L in the nucleus and transported to the cytoplasm through nuclear pores, and the obtained CSE1L-bound Ran-GTP protein was rapidly hydrolyzed to Ran GDP to have the form of a cargo free state (a state in which importin-ax was not bound). Through this series of processes, the protein played a role of substance transport. As another function, the CSE1L protein was particularly abundant in cancer cells or tissues, and reported to have roles and functions in metastasis, such as carcinogenesis, cancer cell movement, and cancer cell invasion, but since the exact mechanism has not been reported yet, it was intended to predict the interaction with a novel metastasis-targeting protein (CSE1L) and develop effective substances using molecular modeling tools. Based on a binding site of the previously identified fusarisetin compound and the target protein (CSE1L), a virtual search was conducted using about 1.5 million compound libraries (commercial focused libraries) to predict combinable compounds. […]

A further data set relates to cancer cells. The experiment in a line: real-time cell movement with Holomonitor device. The data set is classed as cell-based.
A further data set concerns angiogenesis. Briefly: chorioallantoic membrane (CAM) angiogenesis assay. Particulars: fertilized egg, 4 μg. The data set is classed as in vivo. The procedure: In order to confirm whether angiogenesis was inhibited using the compound 1-46, which had high stability in vivo, among methylsulfonamide-based derivative compounds discovered as CSE1L inhibitors, a chorioallantoin membrane (CAM) was performed. First, the surface of the fertilized viable egg was wiped with 70% ethanol, incubated at 37° C. for 4 days, and 3 ml of albumin of the viable egg was extracted and then treated with the compound 1-46 at a concentration of 4 μg, and then it was observed whether angiogenesis was inhibited.

We go through 3 compounds from patent publication US20240025845A1, “METASTASIS-INHIBITING COMPOSITION OF NOVEL METHYLSULFONAMIDE DERIVATIVE COMPOUND” (KOREA RESEARCH INSTITUTE OF BIOSCIENCE AND BIOTECHNOLOGY, priority 2020, published 2024).

On to `NC(=O)CN(c1ccc(C(F)(F)F)cc1)S(=O)(=O)CC(F)(F)F` [Compound 1-45], for which the metabolic stability in data set [1] is 82.2%.

Compound `CS(=O)(=O)N(CC(N)=O)c1ccc(C(Cl)(Cl)Cl)cc1` [Compound 1-1, 2-[N-methylsulfonyl-4-(trichloromethyl)anilino]acetamide] gave a metabolic stability in data set [1] of 89.8%. Also, in the data set with MDA-MB-231 cell lines, the “number of invaded cancer cells” value is “significantly reduced”. Also, the “cytotoxicity (MTT)” value in data set [2] (MDA-MB-231, 50 vM, 24 hours) is listed as “no cytotoxicity”. In data set [3] (10 mg/kg and 50 mg/kg every day for 3 weeks, compared to negative control group), the “change in body weight (toxicity)” value is “no change in body weight”. Also, the “formation of cancer tissue in other organs (metastasis, bioluminescence)” value in data set [3] (10 mg/kg and 50 mg/kg every day, vs control group) is on record as “showed a tendency to inhibit the formation of cancer tissue in other organs”. In data set [3] (10 mg/kg and 50 mg/kg, drug treatment period (16 to 24 days)), the “volume and capacity of the tumors” value was “not suppressed”. Also, in data set [3] (autopsy after 25 days, compared to control group), the “number of cancer cells metastasizing to the lung” value is “significantly reduced”. For the same compound, in the data set with MDA-MB-231 cells (MDA-MB-231, 10 and 20 μM, 24 hours, compared to control group), the “cell movement of cancer cell line (wound healing)” value is “significantly reduced”. Also, the “amount of remaining CSE1L after heating (thermal stabilization)” value on CSE1L is reported as “not reduced, but continuously maintained through structural stabilization”. The “invasion and movement of cancer cells in real time” value with cancer cells is “inhibited the invasion and movement of cancer cells”.

In the case of `NC(=O)CN(c1ccc(C(F)(F)F)cc1)S(=O)(=O)CCC(F)(F)F` [Compound 1-46], the metabolic stability in data set [1] amounted to 91.4%. Besides, the “number of invaded cancer cells” value with MDA-MB-231 cell lines was “significantly reduced”. In data set [2] (MDA-MB-231, 10 to 100 vM), the “cytotoxicity (MTT)” value is given as “no cytotoxicity”. For the same compound, in the data set with angiogenesis, the angiogenesis inhibitory activity entry is “excellent angiogenesis inhibitory activity”. For the same compound, the “cell movement of cancer cell line (wound healing)” value in the data set with MDA-MB-231 cells (MDA-MB-231, compared to control group, concentration not given) was “significantly reduced”.
